Measured values reported in ChEMBL document CHEMBL4411308, “Design, synthesis and biological evaluation of novel benzo- and tetrahydrobenzo-[h]quinoline derivatives as potential DNA-intercalating antitumor agents” (Eur J Med Chem, 2019).
pIC50: −log10 of the molar value.

Tested on: A549
Experiment: Induction of apoptosis in human A549 cells assessed as necrotic cells at 5 uM after 24 hrs by Annexin V-FITC/propidium iodide staining based flow cytometry (reference value: 0.231%)
Type: functional
Settings: not given

SMILES	Activity [%]
Cc1ccc(-c2cc(C(=O)NCCN(C)C)c3ccc4c(c3n2)CCCC4)cc1	1.02
CC(=O)Nc1ccc(-c2cc(C(=O)NCCN(C)C)c3ccc4c(c3n2)CCCC4)cc1	1.22
Cc1ccc(-c2cc(C(=O)NCCN(C)C)c3ccc4ccccc4c3n2)cc1	0.2

Tested on: A549
Experiment: Induction of apoptosis in human A549 cells assessed as early apoptotic cells at 10 uM after 24 hrs by Annexin V-FITC/propidium iodide staining based flow cytometry (reference value: 0.886%)
Type: functional
Settings: not given

SMILES	Activity [%]
Cc1ccc(-c2cc(C(=O)NCCN(C)C)c3ccc4c(c3n2)CCCC4)cc1	44.4
CC(=O)Nc1ccc(-c2cc(C(=O)NCCN(C)C)c3ccc4c(c3n2)CCCC4)cc1	46.4
Cc1ccc(-c2cc(C(=O)NCCN(C)C)c3ccc4ccccc4c3n2)cc1	24.6

Tested on: A549
Experiment: Induction of apoptosis in human A549 cells assessed as late apoptotic cells at 5 uM after 24 hrs by Annexin V-FITC/propidium iodide staining based flow cytometry (reference value: 0.462%)
Type: functional
Settings: not given

SMILES	Activity [%]
Cc1ccc(-c2cc(C(=O)NCCN(C)C)c3ccc4c(c3n2)CCCC4)cc1	0.093
CC(=O)Nc1ccc(-c2cc(C(=O)NCCN(C)C)c3ccc4c(c3n2)CCCC4)cc1	7.58
Cc1ccc(-c2cc(C(=O)NCCN(C)C)c3ccc4ccccc4c3n2)cc1	0.18

Tested on: not listed separately
Experiment: Cytotoxicity against mouse C26 cells assessed as inhibition of cell proliferation after 48 hrs by MTT assay
Type: functional, cell-based
Settings: C26, 48 h

SMILES	pIC50
CN(C)CCNC(=O)c1cc(-c2ccc(F)cc2)nc2c3c(ccc12)CCCC3	4.74
CN(C)CCNC(=O)c1cc(-c2ccccn2)nc2c3c(ccc12)CCCC3	4.30
Cc1ccc(-c2cc(C(=O)NCCN(C)C)c3ccc4c(c3n2)CCCC4)cc1	5.63
CN(C)CCNC(=O)c1cc(-c2ccccc2)nc2c1ccc1ccccc12	4.45
CC(=O)Nc1ccc(-c2cc(C(=O)NCCN(C)C)c3ccc4c(c3n2)CCCC4)cc1	5.41
COc1ccc(-c2cc(C(=O)NCCN(C)C)c3ccc4ccccc4c3n2)cc1	5.62
Cc1ccc(-c2cc(C(=O)NCCN(C)C)c3ccc4ccccc4c3n2)cc1	5.44

Tested on: Calf thymus DNA
Experiment: Binding affinity to calf thymus DNA by UV-vis absorption spectrophotometric method
Type: nucleic-acid assay
Settings: Bos taurus

Kb [×10⁴ No_unit]	SMILES
1.75	Cc1ccc(-c2cc(C(=O)NCCN(C)C)c3ccc4c(c3n2)CCCC4)cc1
2	CC(=O)Nc1ccc(-c2cc(C(=O)NCCN(C)C)c3ccc4c(c3n2)CCCC4)cc1
2	COc1ccc(-c2cc(C(=O)NCCN(C)C)c3ccc4ccccc4c3n2)cc1
2.2	Cc1ccc(-c2cc(C(=O)NCCN(C)C)c3ccc4ccccc4c3n2)cc1

Tested on: A549
Experiment: Cytotoxicity against human A549 cells assessed as inhibition of cell proliferation after 48 hrs by MTT assay
Type: functional, cell-based
Settings: A549, 48 h

SMILES	pIC50
CN(C)CCNC(=O)c1cc(-c2ccc(F)cc2)nc2c3c(ccc12)CCCC3	4.87
CN(C)CCNC(=O)c1cc(-c2ccccn2)nc2c3c(ccc12)CCCC3	4.22
Cc1ccc(-c2cc(C(=O)NCCN(C)C)c3ccc4c(c3n2)CCCC4)cc1	5.41
CN(C)CCNC(=O)c1cc(-c2ccccc2)nc2c1ccc1ccccc12	4.18
CC(=O)Nc1ccc(-c2cc(C(=O)NCCN(C)C)c3ccc4c(c3n2)CCCC4)cc1	5.72
COc1ccc(-c2cc(C(=O)NCCN(C)C)c3ccc4ccccc4c3n2)cc1	4.70
Cc1ccc(-c2cc(C(=O)NCCN(C)C)c3ccc4ccccc4c3n2)cc1	5.23

Tested on: A2780
Experiment: Cytotoxicity against human A2780 cells assessed as inhibition of cell proliferation after 48 hrs by MTT assay
Type: functional, cell-based
Settings: A2780, 48 h

SMILES	pIC50
CN(C)CCNC(=O)c1cc(-c2ccc(F)cc2)nc2c3c(ccc12)CCCC3	5.21
CN(C)CCNC(=O)c1cc(-c2ccccn2)nc2c3c(ccc12)CCCC3	4.83
Cc1ccc(-c2cc(C(=O)NCCN(C)C)c3ccc4c(c3n2)CCCC4)cc1	5.67
CN(C)CCNC(=O)c1cc(-c2ccccc2)nc2c1ccc1ccccc12	4.14
CC(=O)Nc1ccc(-c2cc(C(=O)NCCN(C)C)c3ccc4c(c3n2)CCCC4)cc1	5.73
COc1ccc(-c2cc(C(=O)NCCN(C)C)c3ccc4ccccc4c3n2)cc1	4.85
Cc1ccc(-c2cc(C(=O)NCCN(C)C)c3ccc4ccccc4c3n2)cc1	5.04

Tested on: A549
Experiment: Induction of apoptosis in human A549 cells assessed as early apoptotic cells at 5 uM after 24 hrs by Annexin V-FITC/propidium iodide staining based flow cytometry (reference value: 0.886%)
Type: functional
Settings: not given

SMILES	Activity [%]
Cc1ccc(-c2cc(C(=O)NCCN(C)C)c3ccc4c(c3n2)CCCC4)cc1	1.13
CC(=O)Nc1ccc(-c2cc(C(=O)NCCN(C)C)c3ccc4c(c3n2)CCCC4)cc1	27.5
Cc1ccc(-c2cc(C(=O)NCCN(C)C)c3ccc4ccccc4c3n2)cc1	5.48

Tested on: A549
Experiment: Induction of apoptosis in human A549 cells after 24 hrs by Annexin V-FITC/propidium iodide staining based flow cytometry
Type: functional, cell-based
Settings: not given

SMILES	Activity
Cc1ccc(-c2cc(C(=O)NCCN(C)C)c3ccc4c(c3n2)CCCC4)cc1	Dose-dependent effect
CC(=O)Nc1ccc(-c2cc(C(=O)NCCN(C)C)c3ccc4c(c3n2)CCCC4)cc1	Dose-dependent effect
Cc1ccc(-c2cc(C(=O)NCCN(C)C)c3ccc4ccccc4c3n2)cc1	Dose-dependent effect

Tested on: A549
Experiment: Induction of apoptosis in human A549 cells assessed as live cells at 10 uM after 24 hrs by Annexin V-FITC/propidium iodide staining based flow cytometry (reference value: 98.4%)
Type: functional
Settings: not given

SMILES	Activity [%]
Cc1ccc(-c2cc(C(=O)NCCN(C)C)c3ccc4c(c3n2)CCCC4)cc1	54.9
CC(=O)Nc1ccc(-c2cc(C(=O)NCCN(C)C)c3ccc4c(c3n2)CCCC4)cc1	53
Cc1ccc(-c2cc(C(=O)NCCN(C)C)c3ccc4ccccc4c3n2)cc1	75.1

Tested on: MCF7
Experiment: Cytotoxicity against human MCF7 cells assessed as inhibition of cell proliferation after 48 hrs by MTT assay
Type: functional, cell-based
Settings: MCF7, 48 h

SMILES	pIC50
CN(C)CCNC(=O)c1cc(-c2ccc(F)cc2)nc2c3c(ccc12)CCCC3	4.89
CN(C)CCNC(=O)c1cc(-c2ccccn2)nc2c3c(ccc12)CCCC3	4.78
Cc1ccc(-c2cc(C(=O)NCCN(C)C)c3ccc4c(c3n2)CCCC4)cc1	5.64
CN(C)CCNC(=O)c1cc(-c2ccccc2)nc2c1ccc1ccccc12	4.48
CC(=O)Nc1ccc(-c2cc(C(=O)NCCN(C)C)c3ccc4c(c3n2)CCCC4)cc1	5.57
COc1ccc(-c2cc(C(=O)NCCN(C)C)c3ccc4ccccc4c3n2)cc1	4.43
Cc1ccc(-c2cc(C(=O)NCCN(C)C)c3ccc4ccccc4c3n2)cc1	5.82

Tested on: A549
Experiment: Induction of apoptosis in human A549 cells assessed as necrotic cells at 10 uM after 24 hrs by Annexin V-FITC/propidium iodide staining based flow cytometry (reference value: 0.231%)
Type: functional
Settings: not given

SMILES	Activity [%]
Cc1ccc(-c2cc(C(=O)NCCN(C)C)c3ccc4c(c3n2)CCCC4)cc1	0.01
CC(=O)Nc1ccc(-c2cc(C(=O)NCCN(C)C)c3ccc4c(c3n2)CCCC4)cc1	0.34
Cc1ccc(-c2cc(C(=O)NCCN(C)C)c3ccc4ccccc4c3n2)cc1	0.22

Tested on: A549
Experiment: Induction of apoptosis in human A549 cells assessed as late apoptotic cells at 10 uM after 24 hrs by Annexin V-FITC/propidium iodide staining based flow cytometry (reference value: 0.462%)
Type: functional
Settings: not given

SMILES	Activity [%]
Cc1ccc(-c2cc(C(=O)NCCN(C)C)c3ccc4c(c3n2)CCCC4)cc1	0.72
CC(=O)Nc1ccc(-c2cc(C(=O)NCCN(C)C)c3ccc4c(c3n2)CCCC4)cc1	0.34
Cc1ccc(-c2cc(C(=O)NCCN(C)C)c3ccc4ccccc4c3n2)cc1	0.08

Tested on: A549
Experiment: Induction of apoptosis in human A549 cells assessed as live cells at 5 uM after 24 hrs by Annexin V-FITC/propidium iodide staining based flow cytometry (reference value: 98.4%)
Type: functional
Settings: not given

SMILES	Activity [%]
Cc1ccc(-c2cc(C(=O)NCCN(C)C)c3ccc4c(c3n2)CCCC4)cc1	97.8
CC(=O)Nc1ccc(-c2cc(C(=O)NCCN(C)C)c3ccc4c(c3n2)CCCC4)cc1	63.7
Cc1ccc(-c2cc(C(=O)NCCN(C)C)c3ccc4ccccc4c3n2)cc1	94.1

Tested on: Calf thymus DNA
Experiment: Binding affinity to calf thymus DNA by fluorescence spectroscopic method
Type: nucleic-acid assay
Settings: Bos taurus

Kb [×10⁴ No_unit]	SMILES
6.4	Cc1ccc(-c2cc(C(=O)NCCN(C)C)c3ccc4c(c3n2)CCCC4)cc1
7.4	COc1ccc(-c2cc(C(=O)NCCN(C)C)c3ccc4ccccc4c3n2)cc1
8.1	Cc1ccc(-c2cc(C(=O)NCCN(C)C)c3ccc4ccccc4c3n2)cc1
